The test addresses T1, chicken gizzard smooth muscle myosin subfragment-1 chemically crosslinked to cardiac or skeletal actin (Gallus gallus, UniProt P10587).
T1 construct: chicken gizzard smooth muscle myosin subfragment-1; from tissue; host or cells: chicken gizzard
As to the kind of experiment: Smooth muscle myosin ATPase dose response assay (pyruvate kinase/horseradish peroxidase/pyruvate oxidase-coupled, amplex red fluorescence). The class given is biochemical. To be noted: read-out: IC50 Arithmetic Mean. Put shortly:
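Readout is amplex red signal from coupled ATPase of actin-crosslinked gizzard myosin S1 (0.15 mM ATP, 12 mM K-PIPES, pH 7.00). IC50 is the half-maximal activity point of a four-parameter Hill fit.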

As usually defined, the IC50 is the point on the concentration scale where inhibition reaches its midpoint.

T1 sequence (P02607 2-151): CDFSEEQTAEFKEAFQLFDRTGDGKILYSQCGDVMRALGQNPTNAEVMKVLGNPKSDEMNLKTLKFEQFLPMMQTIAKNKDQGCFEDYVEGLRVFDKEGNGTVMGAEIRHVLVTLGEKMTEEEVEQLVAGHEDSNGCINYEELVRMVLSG
T1 sequence (P10587 84-789): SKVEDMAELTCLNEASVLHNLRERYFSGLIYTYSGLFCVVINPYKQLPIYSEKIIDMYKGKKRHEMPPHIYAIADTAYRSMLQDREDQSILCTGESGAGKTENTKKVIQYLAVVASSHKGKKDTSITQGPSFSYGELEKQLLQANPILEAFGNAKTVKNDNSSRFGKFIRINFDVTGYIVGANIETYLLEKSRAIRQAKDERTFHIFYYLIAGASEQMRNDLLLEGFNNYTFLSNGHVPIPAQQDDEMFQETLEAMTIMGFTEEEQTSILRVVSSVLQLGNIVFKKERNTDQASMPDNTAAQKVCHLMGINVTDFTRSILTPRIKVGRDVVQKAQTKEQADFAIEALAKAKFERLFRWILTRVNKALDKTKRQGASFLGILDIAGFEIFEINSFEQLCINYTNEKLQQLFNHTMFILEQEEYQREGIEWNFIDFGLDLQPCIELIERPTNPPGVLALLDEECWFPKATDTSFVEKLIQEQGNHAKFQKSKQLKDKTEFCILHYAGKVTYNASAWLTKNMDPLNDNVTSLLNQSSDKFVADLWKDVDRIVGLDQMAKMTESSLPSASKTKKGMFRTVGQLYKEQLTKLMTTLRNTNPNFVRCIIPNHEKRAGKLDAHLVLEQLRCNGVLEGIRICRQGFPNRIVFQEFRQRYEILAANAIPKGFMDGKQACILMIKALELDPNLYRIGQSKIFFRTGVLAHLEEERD

As for `CC(C)(C)OC(=O)NCCCN1CC(=O)N[C@H](CNC(=O)c2ccc(-c3ccccc3C#N)nc2NCCc2cccc(F)c2)C1` [N-[((2R)-4-{3-[(tert-butoxy)carbonylamino]propyl}-6-oxopiperazin-2-yl)methyl](6-(2-cyanophenyl)-2-{[2-(3-fluorophenyl)ethyl]amino}(3-pyridyl))carboxamide], the half-inhibitory concentration (IC50) was 9540 nM. Under `Cn1cc(-c2ccc(C(=O)NC[C@H]3CCC(=O)N3)c(NCCc3cccc(F)c3)n2)cn1` [N-[((2R)-5-oxopyrrolidin-2-yl)methyl](2-{[2-(3-fluorophenyl)ethyl]amino}-6-(1-methylpyrazol-4-yl)(3-pyridyl))carboxamide] stands 156 nM.

Regarding `O=C1CC[C@H](CNC(=O)c2ccc(-c3cc[nH]n3)nc2NCCc2cccc(F)c2)N1` [N-[((2R)-5-oxopyrrolidin-2-yl)methyl](2-{[2-(3-fluorophenyl)ethyl]amino}-6-pyrazol-3-yl(3-pyridyl))carboxamide], the IC50 is 355 nM.

With `O=C1CC[C@H](CNC(=O)c2ccc(-c3cn[nH]c3)nc2NCCc2cccc(F)c2)N1` [N-[((2R)-5-oxopyrrolidin-2-yl)methyl](2-{[2-(3-fluorophenyl)ethyl]amino}-6-pyrazol-4-yl(3-pyridyl))carboxamide], the IC50 is 119 nM. As for `Cn1cc(-c2nc(NCCc3cccc(F)c3)c(C(=O)NC[C@H]3CCC(=O)N3)cc2F)cn1` [N-[((2R)-5-oxopyrrolidin-2-yl)methyl](5-fluoro-2-{[2-(3-fluorophenyl)ethyl]amino}-6-(1-methylpyrazol-4-yl)(3-pyridyl))carboxamide], the figure is 27 nM; as for `N#Cc1ccccc1-c1ccc(C(=O)NC[C@H]2CCC(=O)N2)c(NCCc2cccc(F)c2)n1` [N-[((2R)-5-oxopyrrolidin-2-yl)methyl](6-(2-cyanophenyl)-2-{[2-(3-fluorophenyl)ethyl]amino}(3-pyridyl))carboxamide], 13 nM; as for `N#Cc1ccccc1-c1ccc(C(=O)NC[C@H]2CCCC(=O)N2)c(NCCc2cccc(F)c2)n1` [N-[((2R)-6-oxo(2-piperidyl))methyl](6-(2-cyanophenyl)-2-{[2-(3-fluorophenyl)ethyl]amino}(3-pyridyl))carboxamide], 15 nM. Under `N#Cc1ccccc1-c1ccc(C(=O)NC[C@H]2CNCC(=O)N2)c(NCCc2cccc(F)c2)n1` [N-[((2R)-6-oxopiperazin-2-yl)methyl](6-(2-cyanophenyl)-2-{[2-(3-fluorophenyl)ethyl]amino}(3-pyridyl))carboxamide] stands 155 nM; under `O=C(NC[C@H]1CCN1)c1ccc(-c2cn[nH]c2)nc1NCCc1cccc(F)c1` [N-[((2R)azetidin-2-yl)methyl](2-{[2-(3-fluorophenyl)ethyl]amino}-6-pyrazol-4-yl(3-pyridyl))carboxamide], 5440 nM; under `Cn1cc(-c2nc(NCCc3cccc(F)c3)c(C(=O)NC[C@H]3CCN3)cc2F)cn1` [N-[((2R)azetidin-2-yl)methyl](5-fluoro-2-{[2-(3-fluorophenyl)ethyl]amino}-6-(1-methylpyrazol-4-yl)(3-pyridyl))carboxamide], 1580 nM. As for `O=C(NC[C@H]1CCN1)c1cc(F)c(-c2cn[nH]c2)nc1NCCc1cccc(F)c1` [N-[((2R)azetidin-2-yl)methyl](5-fluoro-2-{[2-(3-fluorophenyl)ethyl]amino}-6-pyrazol-4-yl(3-pyridyl))carboxamide], the figure is 466 nM; as for `N#Cc1ccccc1-c1ccc(C(=O)NC[C@H]2CCN2)c(NCCc2cccc(F)c2)n1` [N-[((2R)azetidin-2-yl)methyl](6-(2-cyanophenyl)-2-{[2-(3-fluorophenyl)ethyl]amino}(3-pyridyl))carboxamide], 413 nM. In the case of `N#Cc1ccccc1-c1ccc(C(=O)NC[C@H]2CNCCN2)c(NCCc2cccc(F)c2)n1` [N-[((2R)piperazin-2-yl)methyl](6-(2-cyanophenyl)-2-{[2-(3-fluorophenyl)ethyl]amino}(3-pyridyl))carboxamide], the IC50 was found to be 12200 nM. Turning to `Cc1cc(C(=O)NC[C@H]2CCCN2)c(NCCc2cccc(F)c2)nc1-c1cnn(C)c1` [N-[((2R)pyrrolidin-2-yl)methyl](2-{[2-(3-fluorophenyl)ethyl]amino}-5-methyl-6-(1-methylpyrazol-4-yl)(3-pyridyl))carboxamide], the IC50 was found to be 901 nM. Under `Cn1cc(-c2ccc(C(=O)NC[C@H]3CCCN3)c(NCCc3cccc(F)c3)n2)cn1` [N-[((2R)pyrrolidin-2-yl)methyl](2-{[2-(3-fluorophenyl)ethyl]amino}-6-(1-methylpyrazol-4-yl)(3-pyridyl))carboxamide] stands 3180 nM; under `O=C(NC[C@H]1CCCN1)c1ccc(-c2cn[nH]c2)nc1NCCc1cccc(F)c1` [N-[((2R)pyrrolidin-2-yl)methyl](2-{[2-(3-fluorophenyl)ethyl]amino}-6-pyrazol-4-yl(3-pyridyl))carboxamide], 4750 nM. In the case of `Cn1cc(-c2nc(NCCc3cccc(F)c3)c(C(=O)NC[C@H]3CCCN3)cc2Cl)cn1` [N-[((2R)pyrrolidin-2-yl)methyl](5-chloro-2-{[2-(3-fluorophenyl)ethyl]amino}-6-(1-methylpyrazol-4-yl)(3-pyridyl))carboxamide], the half-maximal inhibitory concentration (IC50) is 167 nM.

Turning to `Cn1cc(-c2nc(NCCc3cccc(F)c3)c(C(=O)NC[C@H]3CCCN3)cc2C#N)cn1` [N-[((2R)pyrrolidin-2-yl)methyl](5-cyano-2-{[2-(3-fluorophenyl)ethyl]amino}-6-(1-methylpyrazol-4-yl)(3-pyridyl))carboxamide], the IC50 came to 281 nM. Consider `N#Cc1cc(C(=O)NC[C@H]2CCCN2)c(NCCc2cccc(F)c2)nc1-c1cn[nH]c1` [N-[((2R)pyrrolidin-2-yl)methyl](5-cyano-2-{[2-(3-fluorophenyl)ethyl]amino}-6-pyrazol-4-yl(3-pyridyl))carboxamide], for which the IC50 came to 624 nM.

Consider `Cn1cc(-c2nc(NCCc3cccc(F)c3)c(C(=O)NC[C@H]3CCCN3)cc2F)cn1` [N-[((2R)pyrrolidin-2-yl)methyl](5-fluoro-2-{[2-(3-fluorophenyl)ethyl]amino}-6-(1-methylpyrazol-4-yl)(3-pyridyl))carboxamide], for which the IC50 was determined as 275 nM.

Take `O=C(NC[C@H]1CCCN1)c1cc(F)c(-c2cn[nH]c2)nc1NCCc1cccc(F)c1` [N-[((2R)pyrrolidin-2-yl)methyl](5-fluoro-2-{[2-(3-fluorophenyl)ethyl]amino}-6-pyrazol-4-yl(3-pyridyl))carboxamide]: the IC50 amounted to 394 nM. As for `N#Cc1ccccc1-c1ccc(C(=O)NC[C@H]2CCCN2)c(NCCc2cccc(F)c2)n1` [N-[((2R)pyrrolidin-2-yl)methyl](6-(2-cyanophenyl)-2-{[2-(3-fluorophenyl)ethyl]amino}(3-pyridyl))carboxamide], the figure is 174 nM; as for `N#Cc1ccccc1-c1nc(NCCc2cccc(F)c2)c(C(=O)NC[C@H]2CCCN2)cc1F` [N-[((2R)pyrrolidin-2-yl)methyl](6-(2-cyanophenyl)-5-fluoro-2-{[2-(3-fluorophenyl)ethyl]amino}(3-pyridyl))carboxamide], 103 nM; as for `N#Cc1ccccc1-c1ccc(C(=O)NC[C@@H]2CCCCN2)c(NCCc2cccc(F)c2)n1` [N-[((2S)(2-piperidyl))methyl](6-(2-cyanophenyl)-2-{[2-(3-fluorophenyl)ethyl]amino}(3-pyridyl))carboxamide], 1020 nM. As for `CC(=O)N1CCN(C(C)=O)[C@@H](CNC(=O)c2ccc(-c3ccccc3C#N)nc2NCCc2cccc(F)c2)C1` [N-[((2S)-1,4-diacetylpiperazin-2-yl)methyl](6-(2-cyanophenyl)-2-{[2-(3-fluorophenyl)ethyl]amino}(3-pyridyl))carboxamide], the figure is 17200 nM; as for `CC(=O)N1CCN(C)C[C@@H]1CNC(=O)c1ccc(-c2ccccc2C#N)nc1NCCc1cccc(F)c1` [N-[((2S)-1-acetyl-4-methylpiperazin-2-yl)methyl](6-(2-cyanophenyl)-2-{[2-(3-fluorophenyl)ethyl]amino}(3-pyridyl))carboxamide], 6790 nM. As for `CC(=O)N1CCC[C@H]1CNC(=O)c1ccc(-c2ccccc2)nc1NCCc1ccccn1` [N-[((2S)-1-acetylpyrrolidin-2-yl)methyl]{6-phenyl-2-[(2-(2-pyridyl)ethyl)amino](3-pyridyl)}carboxamide], the figure is 15700 nM; as for `CC(C)(C)OC(=O)NCC(=O)N1CCCC[C@H]1CNC(=O)c1ccc(-c2ccccc2C#N)nc1NCCc1cccc(F)c1` [N-[((2S)-1-{2-[(tert-butoxy)carbonylamino]acetyl}(2-piperidyl))methyl](6-(2-cyanophenyl)-2-{[2-(3-fluorophenyl)ethyl]amino}(3-pyridyl))carboxamide], 17000 nM; as for `CC(C)(C)OC(=O)NCCC(=O)N1CCCC[C@H]1CNC(=O)c1ccc(-c2ccccc2C#N)nc1NCCc1cccc(F)c1` [N-[((2S)-1-{3-[(tert-butoxy)carbonylamino]propanoyl}(2-piperidyl))methyl](6-(2-cyanophenyl)-2-{[2-(3-fluorophenyl)ethyl]amino}(3-pyridyl))carboxamide], 8640 nM.

On to `CC(C)(C)OC(=O)NCCCN1C(=O)CC[C@H]1CNC(=O)c1ccc(-c2ccccc2C#N)nc1NCCc1cccc(F)c1` [N-[((2S)-1-{3-[(tert-butoxy)carbonylamino]propyl}-5-oxopyrrolidin-2-yl)methyl](6-(2-cyanophenyl)-2-{[2-(3-fluorophenyl)ethyl]amino}(3-pyridyl))carboxamide], for which the IC50 was determined as 4520 nM. Turning to `CN1CCN[C@@H](CNC(=O)c2ccc(-c3ccccc3C#N)nc2NCCc2cccc(F)c2)C1` [N-[((2S)-4-methylpiperazin-2-yl)methyl](6-(2-cyanophenyl)-2-{[2-(3-fluorophenyl)ethyl]amino}(3-pyridyl))carboxamide], the IC50 stood at 2920 nM. As for `N#Cc1ccccc1-c1ccc(C(=O)NC[C@@H]2CCC(=O)N2)c(NCCc2cccc(F)c2)n1` [N-[((2S)-5-oxopyrrolidin-2-yl)methyl](6-(2-cyanophenyl)-2-{[2-(3-fluorophenyl)ethyl]amino}(3-pyridyl))carboxamide], the figure is 133 nM.

These data come from patent US7932270B2 (Cytokinetics, Inc., priority 2006, dated 2011).
